Results: US5026703A, “Peptide oxytocin antagonists” (priority 1990, dated 1991)
Counter-ions that a name gives are not always drawn. *1 amine or outer side, *2 acyl side, *3 side chain or, on linkers, in order; H or OH if unused. Where a SMILES comes first, the peptide text is derived from it. [ ]: non-standard residue; d: D form. X12 = C=CCSC(=N[C@H](C(=O)[*:2])[C@@H](C)CC)[C@@H](Cc1ccccc1)N[*:1]; X2 = O=C([C@@H]1[C@@H](O)[C@@H](O)C=NN1[*:1])[*:2]; X6 = CN(C)C[C@H]1C=NN([*:1])[C@H](C(=O)[*:2])C1; X10 = O=C1CC[C@@H](C(=O)[*:2])N([*:1])N1; Piz(1,6-dehydro) = O=C(O)[C@@H]1CCC=NN1; dPiz(1,6-dehydro) = O=C(O)[C@H]1CCC=NN1; X9 = O=C([C@@H]1C=CC=NN1[*:1])[*:2]; dNMeCha = CN[C@H](CC1CCCCC1)C(=O)O; X5 = O=C([C@@H]1CCCNN1[*:1])[*:2]; X1 = O=C([C@H]1CCCNN1[*:1])[*:2]; dNMeF = CN[C@H](Cc1ccccc1)C(=O)O; dCha = N[C@H](CC1CCCCC1)C(=O)O

Columns and labels:
uterine OT receptors = target: T1, uterine OT receptors (Rattus norvegicus, UniProt P70536); test: [3H]OT radioligand binding to uterine OT receptors, crude membrane preparation; conditions: uteri of DES-treated rats; 1 nM [3H]OT; 60 min, 22° C.; inhibits specific binding by 50%; read-out: Receptor Binding Results IC50 (nM) [3H]OT
T1 construct: from tissue; host or cells: uterus of DES-treated rats, crude membranes
T1 sequence (P70536 1-388): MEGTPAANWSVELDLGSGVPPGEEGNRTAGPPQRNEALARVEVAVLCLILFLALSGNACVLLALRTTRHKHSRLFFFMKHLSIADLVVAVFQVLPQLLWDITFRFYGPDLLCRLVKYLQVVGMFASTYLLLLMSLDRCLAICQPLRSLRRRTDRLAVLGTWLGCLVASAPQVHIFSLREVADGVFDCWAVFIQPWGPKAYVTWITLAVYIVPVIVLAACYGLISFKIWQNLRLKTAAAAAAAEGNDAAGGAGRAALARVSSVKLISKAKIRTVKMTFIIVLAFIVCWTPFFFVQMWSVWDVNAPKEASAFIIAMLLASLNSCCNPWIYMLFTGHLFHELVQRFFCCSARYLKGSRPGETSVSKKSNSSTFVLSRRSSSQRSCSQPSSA
Experimental: The high affinity binding of [^3 H]OT ([tyrosyl, 3,5-[^3 H]OT; 30-60 Ci/mmol; New England Nuclear Boston, Mass.) to uterine OT receptors was based on an assay* using a crude membrane preparation of uteri taken from diethylstilbestrol dipropionate (DES)-treated (0.3 mg/kg, ip; 18-24) rats. Competition studies were conducted at equilibrium (60 min; 22° C.) using 1 nM [^3 H]OT in the following assay buffer: 50 mM Tris-HCl, 5 mM MgCl2, and 0.1% BSA, pH 7.4. Nonspecific binding (10% of the total binding) was determined using 1 μM unlabeled OT and the binding reaction was terminated by filtration through glass fiber filters using a cell harvester (model 7019, Skatron, Inc., Sterling, Va.).
*Fuchs, A-R; Fuchs, F; Soloff, MS. 1985 J. Clin. Endocrinol. Metab. 60:37.

AVP-V1 sites = AVP-V1 sites (Rattus norvegicus, UniProt P30560); test: [3H]AVP radioligand binding to male rat liver crude membrane preparation (AVP-V1 sites); conditions: male rat liver membranes; 1 nM [3H]AVP; 30 min at 30° C.; read-out: Receptor Binding Results IC50 (nM) [^3 H]-AVP-V1
Experimental: (§1) Nonspecific binding (5-10% of the total binding) was determined using 10 μM unlabeled AVP, and the binding reaction was terminated by filtration as described above for the [^3 H]OT binding assay.
(§2) +Butlen, D; Guillon, G; Rajerison, RM; Jard, S; Sawyer, WH; Manning, M. 1978 Mol Pharmacol 14:1006.

AVP-V2 sites = AVP-V2 sites (Rattus norvegicus, UniProt Q00788); test: [3H]AVP radioligand binding to rat kidney medulla crude membrane preparation (AVP-V2 sites); conditions: rat kidney medulla membranes; 2 nM [3H]AVP; 30 min at 30° C.; read-out: Receptor Binding Results IC50 (nM) [^3 H]-AVP-V2
Experimental: as §1, §2

AVP-V1 sites, sequence (P30560 whole entry): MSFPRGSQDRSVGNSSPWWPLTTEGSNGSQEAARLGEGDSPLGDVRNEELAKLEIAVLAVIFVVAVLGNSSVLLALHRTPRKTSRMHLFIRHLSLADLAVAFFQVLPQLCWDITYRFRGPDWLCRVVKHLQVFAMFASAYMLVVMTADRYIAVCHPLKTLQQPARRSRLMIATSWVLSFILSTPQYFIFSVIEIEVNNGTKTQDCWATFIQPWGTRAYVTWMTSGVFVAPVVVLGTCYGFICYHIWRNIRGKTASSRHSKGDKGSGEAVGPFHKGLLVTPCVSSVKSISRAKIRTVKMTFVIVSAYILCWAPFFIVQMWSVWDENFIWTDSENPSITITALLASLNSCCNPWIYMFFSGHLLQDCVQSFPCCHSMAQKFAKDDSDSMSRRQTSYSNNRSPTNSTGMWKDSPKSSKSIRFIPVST
AVP-V2 sites, sequence (Q00788 whole entry): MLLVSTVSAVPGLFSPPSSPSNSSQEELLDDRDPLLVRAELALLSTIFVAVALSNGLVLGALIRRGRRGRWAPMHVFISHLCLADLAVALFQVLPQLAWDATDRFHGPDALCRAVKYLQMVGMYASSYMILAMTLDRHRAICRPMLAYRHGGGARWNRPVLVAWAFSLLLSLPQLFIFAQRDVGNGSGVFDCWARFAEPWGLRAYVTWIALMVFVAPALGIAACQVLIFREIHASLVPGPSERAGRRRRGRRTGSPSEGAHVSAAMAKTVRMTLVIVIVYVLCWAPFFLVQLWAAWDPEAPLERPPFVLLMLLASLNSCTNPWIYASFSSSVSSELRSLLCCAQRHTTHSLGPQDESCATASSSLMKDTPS

IC50 (uterine OT receptors) [nM]	IC50 (AVP-V1 sites) [nM]	IC50 (AVP-V2 sites) [nM]	Structure (SMILES)
710	> 10000	> 10000	C=CCSC1=N[C@@H]([C@@H](C)CC)C(=O)N2N=CCC[C@@H]2C(=O)N2N=CCC[C@H]2C(=O)N(C)[C@H](Cc2ccccc2)C(=O)N2CCC[C@H]2C(=O)N[C@@H]1Cc1ccccc1 [Example 12, cyclo-[(R)-N-(2-amino-3-phenyl-1-(2-propenylthio)-propylidene)-L-isoleucyl-D-2,3,4,5-tetrahydro-3-pyridazinecarbonyl-L-2,3,4,5-tetrahydro-3-pyridazine-carbonyl-N-methyl-D-phenylalanyl-L-prolyl]] (cyclo(P[X12][dPiz(1,6-dehydro)][Piz(1,6-dehydro)][dNMeF]))
290	10000	> 10000	CC[C@H](C)[C@@H]1NC(=O)[C@@H](Cc2ccccc2)NC(=O)[C@@H]2CCCN2C(=O)[C@@H](Cc2ccccc2)N(C)C(=O)[C@@H]2[C@@H](O)[C@@H](O)C=NN2C(=O)[C@H]2CCCNN2C1=O [Example 14, cyclo-[D-Phenylalanyl-L-isoleucyl-D-hexahydro-3-pyridazinecarbonyl-(3α,4β,5β)-4,5-dihydroxy-L-2,3,4,5-tetrahydro-3-pyridazinecarbonyl-N-methyl-D-phenylalanyl-L-prolyl]trifluoroacetate salt.] (cyclo(I[X1][X2][dNMeF]P[dF]))
7.8	1850	2800	CC[C@H](C)[C@@H]1NC(=O)[C@@H](Cc2ccccc2)NC(=O)[C@@H]2CCCN2C(=O)[C@@H](Cc2ccccc2)N(C)C(=O)[C@@H]2C[C@@H](CN(C)C)C=NN2C(=O)[C@H]2CCC=NN2C1=O [Example 18, cyclo-[D-Phenylalanyl-L-isoleucyl-D-2,3,4,5-tetrahydro-3-pyridazinecarbonyl-trans-5-(dimethylamino)methyl-L-2,3,4,5,-tetrahydro-3-pyridazinecarbonyl-N-methyl-D-phenylalanyl-L-prolyl] monoacetate] (cyclo(I[dPiz(1,6-dehydro)][X6][dNMeF]P[dF]))

The remaining lines, values behind:

Structure (SMILES)	IC50 (uterine OT receptors) [nM]	IC50 (AVP-V1 sites) [nM]	IC50 (AVP-V2 sites) [nM]
CC[C@H](C)[C@@H]1NC[C@@H](Cc2ccccc2)NC(=O)[C@@H]2CCCN2C(=O)[C@@H](Cc2ccccc2)N(C)C(=O)[C@@H]2CCC=NN2C(=O)[C@H]2CCC=NN2C1=O [Example 7, cyclo-[N-(2-Amino-3-phenylpropyl)-L-isoleucyl-D-2,3,4,5-tetrahydro-3-pyridazinecarbonyl-L-2,3,4,5-tetrahydro-3-pyridazinecarbonyl-N-methyl-D-phenylalanyl-L-prolyl]]	30000	> 30000	> 30000
CC[C@H](C)[C@@H]1NC(=O)[C@@H](CC2CCCCC2)NC(=O)[C@@H]2CCCN2C(=O)[C@@H](CC2CCCCC2)N(C)C(=O)[C@@H]2CCCNN2C(=O)[C@H]2CCCNN2C1=O [Example 1, cyclo-[D-3-Cyclohexylalanyl-L-isoleucyl-D-hexahydro-3-pyridazinecarbonyl-L-hexahydro-3-pyridazinecarbonyl-3-cyclohexyl-N-methyl-D-alanyl-L-prolyl]] (cyclo(I[X1][X5][dNMeCha]P[dCha]))	725	2400	14800
CC[C@H](C)[C@@H]1NC(=O)[C@@H](Cc2ccccc2)NC(=O)[C@@H]2CCCN2C(=O)[C@@H](Cc2ccccc2)N(C)C(=O)[C@@H]2CCC(=O)NN2C(=O)[C@H]2CCC=NN2C1=O [Example 3, cyclo-[D-Phenylalanyl-L-isoleucyl-D-2,3,4,5-tetrahydro-3-pyridazinecarbonyl-L-hexahydro-6-oxo-3-pyridazinecarbonyl-N-methyl-D-phenylalanyl-L-prolyl]] (cyclo(I[dPiz(1,6-dehydro)][X10][dNMeF]P[dF]))	20	4700	17000
CC[C@H](C)[C@@H]1NC(=O)[C@@H](Cc2ccccc2)NC(=O)[C@@H]2CCCN2C(=O)[C@@H](Cc2ccccc2)N(C)C(=O)[C@@H]2C=CC=NN2C(=O)[C@H]2CCC=NN2C1=O [Example 8, cyclo-[D-Phenylalanyl-L-isoleucyl-D-2,3,4,5-tetrahydro-3-pyridazinecarbonyl-L-2,3-dihydro-3-pyridazine-carbonyl-N-methyl-D-phenylalanyl-L-prolyl]] (cyclo(I[dPiz(1,6-dehydro)][X9][dNMeF]P[dF]))	20	1410	1350
